Measured values: patent US20060045953A1 (priority 2004, published 2006)
Where two headings read alike, the source gives them in different places.

Biological target: T1, hT1R1/hT1R3 umami receptor (Homo sapiens, UniProt Q7RTX0+Q7RTX1)
T1 construct: expressed in transfected cells; host or cells: HEK293 derivative stably expressing Gα15, clone I-17, expression induced with mifepristone
T1 sequence (Q7RTX1 21-841): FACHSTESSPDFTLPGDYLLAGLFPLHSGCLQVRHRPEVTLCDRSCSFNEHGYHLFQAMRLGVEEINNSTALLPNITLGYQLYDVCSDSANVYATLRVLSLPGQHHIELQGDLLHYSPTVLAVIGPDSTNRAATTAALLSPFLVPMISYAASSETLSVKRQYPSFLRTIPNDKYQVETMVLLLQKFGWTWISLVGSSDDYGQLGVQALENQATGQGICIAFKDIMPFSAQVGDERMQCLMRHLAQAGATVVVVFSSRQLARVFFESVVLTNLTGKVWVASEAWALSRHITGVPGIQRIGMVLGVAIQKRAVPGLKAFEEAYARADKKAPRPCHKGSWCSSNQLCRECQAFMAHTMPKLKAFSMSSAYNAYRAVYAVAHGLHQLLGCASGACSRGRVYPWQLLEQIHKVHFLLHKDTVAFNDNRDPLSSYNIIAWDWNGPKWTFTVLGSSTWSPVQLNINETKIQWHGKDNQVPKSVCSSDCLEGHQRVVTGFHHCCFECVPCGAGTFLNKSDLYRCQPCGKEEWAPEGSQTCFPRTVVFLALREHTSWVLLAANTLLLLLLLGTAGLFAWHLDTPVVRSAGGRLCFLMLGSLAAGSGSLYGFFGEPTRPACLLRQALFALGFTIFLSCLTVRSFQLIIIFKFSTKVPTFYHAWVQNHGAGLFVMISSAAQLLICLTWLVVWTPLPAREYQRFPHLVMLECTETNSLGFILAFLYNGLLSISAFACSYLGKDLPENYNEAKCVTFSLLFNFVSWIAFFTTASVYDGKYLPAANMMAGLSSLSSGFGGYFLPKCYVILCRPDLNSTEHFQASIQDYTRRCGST
T1 sequence (Q7RTX0 21-852): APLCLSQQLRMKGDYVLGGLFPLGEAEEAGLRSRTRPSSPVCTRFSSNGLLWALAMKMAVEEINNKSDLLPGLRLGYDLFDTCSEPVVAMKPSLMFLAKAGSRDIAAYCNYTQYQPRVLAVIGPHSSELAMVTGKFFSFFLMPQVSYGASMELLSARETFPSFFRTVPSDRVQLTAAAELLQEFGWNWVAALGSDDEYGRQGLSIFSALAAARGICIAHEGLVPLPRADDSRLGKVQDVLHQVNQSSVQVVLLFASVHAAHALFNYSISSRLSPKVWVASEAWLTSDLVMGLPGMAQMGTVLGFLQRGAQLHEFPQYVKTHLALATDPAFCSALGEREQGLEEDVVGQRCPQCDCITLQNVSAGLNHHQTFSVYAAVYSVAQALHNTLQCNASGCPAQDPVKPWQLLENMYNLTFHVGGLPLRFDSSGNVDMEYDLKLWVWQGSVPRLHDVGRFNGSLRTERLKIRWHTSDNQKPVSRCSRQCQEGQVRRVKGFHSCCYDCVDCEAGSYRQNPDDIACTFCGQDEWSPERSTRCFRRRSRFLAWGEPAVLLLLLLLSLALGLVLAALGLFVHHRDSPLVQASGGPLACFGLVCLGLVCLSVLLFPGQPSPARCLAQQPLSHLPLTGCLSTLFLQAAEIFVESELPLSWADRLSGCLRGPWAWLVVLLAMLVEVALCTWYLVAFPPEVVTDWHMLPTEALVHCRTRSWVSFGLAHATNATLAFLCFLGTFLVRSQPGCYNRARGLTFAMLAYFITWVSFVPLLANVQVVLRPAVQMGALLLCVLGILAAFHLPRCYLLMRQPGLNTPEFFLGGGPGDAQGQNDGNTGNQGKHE
Assay: In vitro hT1R1/hT1R3 umami taste receptor activation assay (FLIPR, dose response)
Assay type: cell-based

[1] = Table A, Umami Amides, read-out: Umami EC50
[2] = read-out: EC50 for activation of a hT1R1/hT1R3 umami receptor expressed in an HEK293 cell line
[3] = Table C, Umami Ureas, read-out: Umami EC50

COC(=O)[C@@H](CC(C)C)NC(=O)c1cc2ccccc2[nH]1 [Example A34, (R)-methyl 2-(1H-indole-2-carboxamido)-4-methylpentanoate]
EC50 [1]: 0.53 µM

COC(=O)c1ccc(NC(=O)c2c(Cl)ccc(Cl)c2OC)cc1 [Example A2, 4-(3,6-Dichloro-2-methoxy-benzoylamino)-benzoic acid methyl ester]
EC50 [1]: 0.93 µM

CCCC(CC)NC(=O)c1ccc(C)c(C)c1 (stereo not drawn) [Example A56, N-(hexan-3-yl)-3,4-imethylbenzamide]
EC50 [1]: 0.14 µM

COC[C@@H](CC(C)C)NC(=O)c1cc2cc(OC)ccc2o1 [Example A7, (R)-5-methoxy-N-(1-methoxy-4-methylpentan-2-yl)benzofuran-2-carboxamide]
EC50 [1]: 0.46 µM

COc1cccc(C(=O)N[C@H]2CCCc3ccccc32)c1O [Example A93, (S)-2-hydroxy-3-methoxy-N-(1,2,3,4-tetrahydronaphthalen-1-yl)benzamide]
EC50 [1]: 0.7 µM

CCCC(CCC)NC(=O)/C=C/c1ccc(OC)c(OC)c1 [Example 87, 3-(3,4-Dimethoxy-phenyl)-N-(1-propyl-butyl)-acrylamide]
EC50 [2]: 0.97 µM

COC(=O)[C@@H](CC(C)C)NC(=O)c1ccc2occc2c1 [Example A9, (R)-methyl 2-(benzofuran-5-carboxamido)-4-methylpentanoate]
EC50 [1]: 0.71 µM

Cc1ccc(NC(=O)N[C@@H](C)C(C)C)c(Cl)c1 [Example C23, (S)-1-(2-chloro-4-methylphenyl)-3-(3-methylbutan-2-yl)urea]
EC50 [3]: 0.38 µM

CCCC(CCC)NC(=O)c1cc2ccccc2n1C [Example 37, N-(heptan-4-yl)-1-methyl-1H-indole-2-carboxamide]
EC50 [2]: 1.79 µM

CCCC(CCC)NC(=O)c1ccc(-c2cnco2)cc1 [Example A128, N-(heptan-4-yl)-4-(oxazol-5-yl)benzamide]
EC50 [1]: 0.4 µM

COc1ccc(C(=O)NC2CCCCC2C)cc1Cl (stereo not drawn) [Example A77, 3-chloro-4-methoxy-N-(2-methylcyclohexyl)benzamide]
EC50 [1]: 0.44 µM

CCCC(CCC)NC(=O)c1ccc2c(c1)OC(CC(=O)OCC)O2 (stereo not drawn) [Example 19, Ethyl 2-(5-(heptan-4-ylcarbamoyl)benzo[d][1,3]dioxol-2-yl)acetate]
EC50 [2]: 14 µM

CC(CCc1ccccc1)NC(=O)/C=C/c1cccs1 (stereo not drawn) [Example D4, N-(1-Methyl-3-phenyl-propyl)-3-thiophen-2-yl-acrylamide]
EC50 (Table D, Umami Acrylamides, read-out: Umami EC50): 0.69 µM

Cc1cc(C(=O)NC2CCCc3ccccc32)ccc1O (stereo not drawn) [Example A102, 4-hydroxy-3-methyl-N-(1,2,3,4-tetrahydronaphthalen-1-yl)benzamide]
EC50 [1]: 1.32 µM

CCCC(CCC)NC(=O)c1cccc(C(F)(F)F)c1 [Example A70, N-(heptan-4-yl)-3-(trifluoromethyl)benzamide]
EC50 [1]: 0.33 µM

CCCC(NC(=O)c1ccc(OC)c(C)c1)c1ccccn1 (stereo not drawn) [Example 114, 4-Methoxy-3-methyl-N-(1-pyridin-2-yl-butyl)-benzamide]
EC50 [2]: 1.54 µM

COc1ccc2c(c1)CCCC2NC(=O)c1cccc(OC)c1N (stereo not drawn) [Example A107, 2-amino-3-methoxy-N-(6-methoxy-1,2,3,4-tetrahydronaphthalen-1-yl)benzamide]
EC50 [1]: 0.07 µM

CCCC(CC(C)C)NC(=O)c1cc2cc(C)ccc2o1 (stereo not drawn) [Example A20, 5-methyl-N-(2-methylheptan-4-yl)benzofuran-2-carboxamide]
EC50 [1]: 1.32 µM

CC(C)C(NC(=O)Nc1ccc2c(c1)OCO2)C(C)C [Example C19, 1-(benzo[d][1,3]dioxol-5-yl)-3-(2,4-dimethylpentan-3-yl)urea]
EC50 [3]: 0.32 µM

COC(=O)[C@@H](CC(C)C)NC(=O)c1cc2cc(C)ccc2o1 [Example 27, (R)-methyl 4-methyl-2-(5-methylbenzofuran-2-carboxamido)pentanoate]
EC50 [2]: 0.11 µM

COC[C@H](NC(=O)c1ccc(OC)c(C)c1)c1ccccc1 [Example A94, (R)-4-methoxy-N-(2-methoxy-1-phenylethyl)-3-methylbenzamide]
EC50 [1]: 0.72 µM
